Patent US20170190671A1, “BIS(ARYL)CATECHOL DERIVATIVES AS HERBICIDES” (E I DU PONT DE NEMOURS AND COMPANY, priority 2014, published 2017)

Legend:
Format in all cases: in vivo
[1] = test system: blackgrass (Alopecurus myosuroides); assay: Test A postemergence; conditions: Alopecurus myosuroides, post-emergence, 240 h, 0 to 100 scale, read-out: Plant response rating, Blackgrass
How it was run: (§1)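 Scoring: eye-based comparison with untreated controls, 0 for no effect through 100 for complete control, at about day 10. Treatments: directed soil spray preemergence; foliar spray postemergence on 2–10 cm plants at the one- to two-leaf stage. Medium: loam soil with sand.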

[2] = test system: pigweed (Amaranthus retroflexus); assay: Test A postemergence; conditions: Amaranthus retroflexus, post-emergence, 240 h, 0 to 100 scale, read-out: Plant response rating, Pigweed
How it was run: as §1

[3] = test system: Italian ryegrass (Lolium multiflorum); assay: Test A postemergence; conditions: Lolium multiflorum, post-emergence, 240 h, 0 to 100 scale, read-out: Plant response rating, Ryegrass, Italian
How it was run: as §1

kochia (Kochia scoparia) [4] = assay: Test A postemergence; conditions: Bassia scoparia, post-emergence, 240 h, 0 to 100 scale, read-out: Plant response rating, Kochia
How it was run: as §1

[5] = test system: giant foxtail (Setaria faberii); assay: Test A postemergence; conditions: Setaria faberi, post-emergence, 240 h, 0 to 100 scale, read-out: Plant response rating, Foxtail, Giant
How it was run: as §1

[6] = test system: ragweed (common ragweed, Ambrosia elatior); assay: Test A postemergence; conditions: Ambrosia artemisiifolia, post-emergence, 240 h, 0 to 100 scale, read-out: Plant response rating, Ragweed
How it was run: as §1

[7] = test system: barnyardgrass (Echinochloa crus-galli); assay: Test A postemergence; conditions: Echinochloa crus-galli, post-emergence, 240 h, 0 to 100 scale, read-out: Plant response rating, Barnyardgrass
How it was run: as §1

[8] = test system: wheat (Triticum aestivum); assay: Test A postemergence; conditions: Triticum aestivum, post-emergence, 240 h, 0 to 100 scale, read-out: Plant response rating, Wheat
How it was run: as §1

[9] = test system: galium (catchweed bedstraw, Galium aparine); assay: Test A postemergence; conditions: Galium, post-emergence, 240 h, 0 to 100 scale, read-out: Plant response rating, Galium
How it was run: as §1

corn (Zea mays) = assay: Test A postemergence; conditions: Zea mays, post-emergence, 240 h, 0 to 100 scale
How it was run: as §1

[10] = test system: Italian ryegrass (Lolium multiflorum); assay: Test C postemergence; conditions: Lolium multiflorum, post-emergence, 336 h, Postemergence, scale 0 to 100, read-out: Plant response rating, Ryegrass, Italian
Description: (§2) Seeds of plant species selected from blackgrass (Alopecurus myosuroides), Italian ryegrass (Lolium multiflorum), winter wheat (Triticum aestivum), galium (catchweed bedstraw, Galium aparine), corn (Zea mays), large (Lg) crabgrass (Digitaria sanguinalis), giant foxtail (Setaria faberii), johnsongrass (Sorghum halepense), lambsquarters (Chenopodium album), morningglory (Ipomoea coccinea), yellow nutsedge (Cyperus esculentus), pigweed (Amaranthus retroflexus), ragweed (common ragweed, Ambrosia elatior), soybean (Glycine max), barnyardgrass (Echinochloa crus-galli), oilseed rape (Brassica napus), waterhemp (common waterhemp, Amaranthus rudis), and velvetleaf (Abutilon theophrasti) were planted into a blend of loam soil and sand and treated preemergence with test chemicals formulated in a non-phytotoxic solvent mixture which included a surfactant.
(§3) At the same time, plants selected from these crop and weed species and also chickweed (common chickweed, Stellaria media), kochia (Kochia scoparia), and wild oat (Avena fatua), were planted in pots containing Redi-Earth® planting medium (Scotts Company, 14111 Scottslawn Road, Marysville, Ohio 43041) comprising spaghnum peat moss, vermiculite, wetting agent and starter nutrients and treated with postemergence applications of test chemicals formulated in the same manner. Plants ranged in height from 2 to 18 cm (1- to 4-leaf stage) for postemergence treatments. Treated plants and controls were maintained in a greenhouse for 13 to 15 days, after which time all species were compared to controls and visually evaluated. Plant response ratings, summarized in Table C, are based on a scale of 0 to 100 where 0 is no effect and 100 is complete control. A dash (-) response means no test result.

wild oat (Avena fatua) = assay: Test C postemergence; conditions: Avena fatua, post-emergence, Postemergence, scale 0 to 100, read-out: Plant response rating, Oat, Wild
Description: as §2, §3

[11] = test system: barnyardgrass (Echinochloa crus-galli); assay: Test B flooded paddy; conditions: Echinochloa crus-galli, 336 h; 250 g ai/ha, Flood, 13 to 15 days, scale 0 (no effect) to 100 (complete control); read-out: Plant response rating, Barnyardgrass
How it was run: (§4)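 Compound was added to standing water 3 cm above soil, flood maintained, and plants held in a greenhouse before visual scoring against controls at 13 to 15 days.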

[12] = test system: sedge, umbrella (small-flower umbrella sedge, Cyperus difformis); assay: Test B flooded paddy; conditions: Cyperus difformis, 336 h; 250 g ai/ha, Flood, 13 to 15 days, scale 0 (no effect) to 100 (complete control); read-out: Plant response rating, Sedge, Umbrella
How it was run: as §4

rice (Oryza sativa) = assay: Test B flooded paddy; conditions: Oryza sativa, 336 h; 250 g ai/ha, Flood, 13 to 15 days, scale 0 (no effect) to 100 (complete control); read-out: Plant response rating, Rice
How it was run: as §4

[13] = test system: ducksalad (Heteranthera limosa); assay: Test B flooded paddy; conditions: Heteranthera limosa, 336 h; 250 g ai/ha, Flood, 13 to 15 days, scale 0 (no effect) to 100 (complete control); read-out: Plant response rating, Ducksalad
How it was run: as §4

[14] = test system: pigweed (Amaranthus retroflexus); assay: Test A preemergence; conditions: Amaranthus retroflexus, pre-emergence, 240 h, 0 to 100 scale (0 no effect, 100 complete control), read-out: Pigweed plant response rating
How it was run: as §1

[15] = test system: Italian ryegrass (Lolium multiflorum); assay: Test A preemergence; conditions: Lolium multiflorum, pre-emergence, 240 h, 0 to 100 scale (0 no effect, 100 complete control), read-out: Ryegrass, Italian plant response rating
How it was run: as §1

kochia (Kochia scoparia) [16] = assay: Test A preemergence; conditions: Bassia scoparia, pre-emergence, 240 h, 0 to 100 scale (0 no effect, 100 complete control), read-out: Kochia plant response rating
How it was run: as §1

[17] = test system: giant foxtail (Setaria faberii); assay: Test A preemergence; conditions: Setaria faberi, pre-emergence, 240 h, 0 to 100 scale (0 no effect, 100 complete control), read-out: Foxtail, Giant plant response rating
How it was run: as §1

[18] = test system: ragweed (common ragweed, Ambrosia elatior); assay: Test A preemergence; conditions: Ambrosia artemisiifolia, pre-emergence, 240 h, 0 to 100 scale (0 no effect, 100 complete control), read-out: Ragweed plant response rating
How it was run: as §1

[19] = test system: barnyardgrass (Echinochloa crus-galli); assay: Test A preemergence; conditions: Echinochloa crus-galli, pre-emergence, 240 h
How it was run: as §1

N#Cc1cccc(Oc2ncc(Cl)cn2)c1Oc1ccc(Cl)cn1 [Compound 16, 2-[(5-chloro-2-pyridinyl)oxy]-3-[(5-chloro-2-pyrimidinyl)oxy]benzonitrile]
30%: pest or weed control at 125 g/ha ([6]; 125 g ai/ha) | pest or weed control at 31 g/ha (kochia (Kochia scoparia) [16]; 31 g ai/ha) | pest or weed control at 31 g/ha ([19]; 31 g ai/ha, 0 to 100 scale (0 no effect, 100 complete control), read-out: Barnyardgrass plant response rating)
50%: pest or weed control at 31 g/ha ([1]; 31 g ai/ha) | pest or weed control at 31 g/ha (kochia (Kochia scoparia) [4]; 31 g ai/ha)
70%: pest or weed control at 125 g/ha ([1]; 125 g ai/ha) | pest or weed control at 31 g/ha ([5]; 31 g ai/ha) | pest or weed control at 125 g/ha ([7]; 125 g ai/ha) | pest or weed control at 125 g/ha ([19]; 125 g ai/ha, 0 to 100 scale, read-out: Plant response rating, Barnyardgrass)
10%: pest or weed control at 31 g/ha ([6]; 31 g ai/ha) | pest or weed control at 31 g/ha ([7]; 31 g ai/ha) | pest or weed control at 31 g/ha ([10]; 31 g ai/ha) | pest or weed control at 31 g/ha (wild oat (Avena fatua); 31 g ai/ha)
20%: plant injury at 125 g/ha ([8]; 125 g ai/ha) | Corn plant response rating (crop injury, 0 = no effect, 100 = complete kill) at 125 g/ha (corn (Zea mays); 125 g ai/ha) | pest or weed control at 250 g/ha [11] | pest or weed control at 125 g/ha ([15]; 125 g ai/ha)
80%: pest or weed control at 125 g/ha ([3]; 125 g ai/ha) | pest or weed control at 125 g/ha ([5]; 125 g ai/ha)
100%: pest or weed control at 31 g/ha ([2]; 31 g ai/ha) | pest or weed control at 125 g/ha ([2]; 125 g ai/ha) | pest or weed control at 125 g/ha (kochia (Kochia scoparia) [4]; 125 g ai/ha) | pest or weed control at 31 g/ha ([14]; 31 g ai/ha) | pest or weed control at 125 g/ha ([14]; 125 g ai/ha) | pest or weed control at 125 g/ha ([17]; 125 g ai/ha)
95%: pest or weed control at 250 g/ha [12]
5%: pest or weed control at 62 g/ha ([10]; 62 g ai/ha) | pest or weed control at 62 g/ha (wild oat (Avena fatua); 62 g ai/ha) | pest or weed control at 125 g/ha (wild oat (Avena fatua); 125 g ai/ha)
40%: pest or weed control at 31 g/ha ([3]; 31 g ai/ha) | plant injury at 250 g/ha (rice (Oryza sativa))
0%: plant injury at 31 g/ha ([8]; 31 g ai/ha) | Corn plant response rating (crop injury, 0 = no effect, 100 = complete kill) at 31 g/ha (corn (Zea mays); 31 g ai/ha) | pest or weed control at 31 g/ha ([15]; 31 g ai/ha) | pest or weed control at 31 g/ha ([18]; 31 g ai/ha) | pest or weed control at 125 g/ha ([18]; 125 g ai/ha)
90%: pest or weed control at 31 g/ha ([9]; 31 g ai/ha) | pest or weed control at 125 g/ha ([9]; 125 g ai/ha) | pest or weed control at 250 g/ha [13] | pest or weed control at 125 g/ha (kochia (Kochia scoparia) [16]; 125 g ai/ha) | pest or weed control at 31 g/ha ([17]; 31 g ai/ha)
15%: pest or weed control at 125 g/ha ([10]; 125 g ai/ha)
